In PubChem BioAssay (NCI):
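Growth conditions: 96-well plates. Treatment: test compound, 48 hours, 5 concentrations. Analysis: linear interpolation between bracketing concentrations; unreached endpoints set to highest concentration. GI50 marks 50% less growth. The concentration for full growth arrest is given as TGI.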

Experiments:
Experiment in all cases: inhibition of tumour cell growth, NCI panel, 48 h
[1] = test system: M14 melanoma
[2] = test system: MOLT-4 leukemia
[3] = test system: K-562 leukemia
[4] = test system: 786-0 renal
[5] = test system: SK-MEL-2 melanoma
[6] = test system: HCT-15 colon
[7] = test system: OVCAR-4 ovarian
[8] = test system: RXF 393 renal
[9] = test system: MDA-MB-435

Row | Structure (SMILES) | TGI [1] [µM] | TGI [2] [µM] | TGI [3] [µM] | TGI [4] [µM] | TGI [5] [µM] | TGI [6] [µM] | TGI [7] [µM] | GI50 [8] [µM] | TGI [8] [µM] | GI50 [1] [µM] | GI50 [9] [µM] | TGI [9] [µM] | GI50 [4] [µM] | GI50 [5] [µM] | GI50 [6] [µM] | GI50 [7] [µM] | GI50 [2] [µM] | GI50 [3] [µM]
1 | OCC1OC(c2nc(C3=NCCCN3)cs2)C(O)C1O (centres undefined) | > 100 | > 100 | > 100 | > 100 | > 100 | > 100 | > 100 |  |  |  |  |  |  |  |  |  |  | 
2 | Cn1cc(-c2csc(-c3c[nH]c4ccc(F)cc34)n2)c2cnccc21 | 3.27 |  |  | 3.47 | 3.48 | 3.36 | 3.06 | 1.78 | 3.25 | 1.74 | 1.85 | 3.31 | 1.85 | 1.87 | 1.67 | 1.6 |  | 
3 | O=C(CCc1n[nH]c(=S)o1)Nc1ccccc1C(F)(F)F | > 100 | > 100 | > 100 | > 100 |  | 38.8 | > 100 |  |  |  |  |  |  |  |  |  |  | 
4 | COc1cc(-n2cc(-c3ccc(F)cc3)[nH]c2=O)cc(OC)c1OC |  | > 100 | > 100 | > 100 | > 100 | > 100 | > 100 | > 100 | > 100 |  | > 100 | > 100 | > 100 | > 100 | > 100 | > 100 | > 100 | > 100
5 | O=C1Nc2ccccc2/C1=N\[O-].O=C1Nc2ccccc2/C1=N\[O-].[Cu+2] | > 100 | > 100 | > 100 | > 100 | > 100 | > 100 | > 100 | > 100 | > 100 | > 100 | > 100 | > 100 | > 100 | > 100 | > 100 | > 100 | > 100 | > 100
6 | O=C(CSc1nc2ccccc2nc1-c1ccccc1)Nc1ccc(F)cc1 | > 100 |  | > 100 | > 100 | > 100 | > 100 | 15.7 | 18.6 | 68.5 | > 100 | > 100 | > 100 | 49.2 | 73.5 | 48.7 | 1.96 |  | 30.8
7 | O=C1/C(=C/c2ccc3c(c2)OCO3)SC2C=Nc3ccccc3N12 (centres undefined) | > 100 | > 100 |  | > 100 | > 100 | > 100 | > 100 |  | > 100 |  |  |  |  |  |  |  |  | 
8 | CN(C)CC[PH+](c1ccccc1)c1ccccc1.CN(C)CC[PH+](c1ccccc1)c1ccccc1.[Cl-].[Pd+2] | > 100 |  | > 100 | > 100 |  | > 100 | > 100 |  |  | > 100 | > 100 | > 100 | > 100 |  | > 100 | > 100 |  | 27.8
9 | Cc1ccc(/C=C/C(=O)c2sc(-c3nc(C)c(C(=O)/C=C/c4ccc(C)cc4)s3)nc2C)cc1 |  | > 100 | > 100 | > 100 | > 100 | > 100 |  |  | > 100 |  |  |  |  |  |  |  |  | 
10 | O=C(Nc1ccncc1)C(=O)c1cn(S(=O)(=O)c2ccc(F)cc2)c2ccccc12 | > 100 | > 100 |  | 79.7 | 52.9 | > 100 | > 100 | 2.6 | 8.72 | 1.78 |  |  | 4.55 | 4.74 | 1.41 | 23.1 | 5.22 | 
11 | Cc1cc(Cl)ccc1NC(=O)C(=O)Cc1nc2ccccc2o1 | > 100 | > 100 | > 100 | > 100 | > 100 | > 100 | > 100 |  | > 100 |  |  |  |  |  |  |  |  | 
12 | [N-]=[N+]=N[C@H]1C[C@@H](CO)O[C@H]1n1cnc2c(N)ncnc21 | > 100 |  |  | > 100 | > 100 |  | > 100 |  |  |  |  |  |  |  |  |  |  | 
13 | NC(=O)C12CC3CC(CC(F)(C3)C1)C2 | > 100 | > 100 | > 100 | > 100 | > 100 |  |  |  | > 100 |  |  |  |  |  |  |  |  | 
14 | COc1cc(F)ccc1-c1ncnc(Nc2cccc(CS(C)(=N)=O)c2)n1 (centres undefined) | > 100 | 7.06 | > 100 | > 100 | 3.47 | > 100 | > 100 | 0.239 | 0.534 | 2.25 | 1.55 | > 100 | 1.18 | 1.08 | 0.495 | 2.4 | 2.01 | 3.78
15 | C1=CC(N(c2ccccc2)C2C=CCCC2)CCC1 (centres undefined) | > 100 |  | > 100 | > 100 |  | > 100 |  |  | > 100 |  |  |  |  |  |  |  |  | 
16 | O=c1ccn([C@H]2CSC[C@@H](CO)C2)c(=O)[nH]1 | > 100 | > 100 | > 100 | > 100 | > 100 | > 100 | > 100 |  |  |  |  |  |  |  |  |  |  | 
17 | COc1ccc2c(c1)C(=O)c1c-2c(N2CCN(C(=O)CNCCNCCO)CC2)nc2ccccc12 | 3.33 | 6.61 | 11.9 | 3.34 | 4 | 22.4 | 19.4 |  |  | 1.82 | 8.18 | 28.5 | 1.77 | 2.2 | 7.81 | 6.71 | 2.19 | 2.85
18 | CCCc1nc(NC#N)nc(C(=O)Nc2ccccc2)c1CC | > 100 | > 100 | > 100 | > 100 | > 100 | > 100 |  |  | > 100 |  |  |  |  |  |  |  |  | 
19 | O=C(CC1(O)C(=O)N(Cc2ccccc2)c2ccc(F)cc21)c1ccc(C(=O)NCC2CCC3(CC2)OOC2(CCCCC2)OO3)cc1 (centres undefined) | 6.63 |  |  | 0.344 | 4.13 | 3.2 | 4.62 | 0.317 | 0.851 | 2.02 | 0.468 | 1.42 | 0.18 | 2 | 0.867 | 1.81 |  | 
20 | C=C(C)[C@@H]1CC[C@]2(C)[C@H](CC=C3[C@@H]4CC(C)(C)CC[C@]4(C(N)=O)CC[C@]32C)[C@@]1(C)CCC#N | > 100 |  | > 100 | 4.12 | > 100 | > 100 | > 100 | 2.34 | 5.11 | 3.11 | 3.21 | 20.5 | 2 | 5.28 | 3.14 | 2.56 |  | 2.54
21 | O=C(Nc1nc(=S)c2c(ncn2CCOC(=O)c2ccccc2)[nH]1)c1ccccc1 | > 100 |  | > 100 | > 100 | > 100 | > 100 | 57.7 |  | 59.2 |  |  |  |  |  |  |  |  | 
22 | CO/N=C(\COc1ccc2c(c1)oc(=O)c1cc(OC)ccc12)c1ccc(OC)cc1 | > 100 | > 100 | > 100 | > 100 | > 100 | > 100 | > 100 | > 100 | > 100 | > 100 | > 100 | > 100 | > 100 | > 100 | > 100 | 20.5 | > 100 | > 100
23 | [Cl][Hg][c]1cc[c]([Hg][Cl])o1 | 12 | 8.59 | 11.8 | 15.1 | 11.3 | 6.06 | 4.24 | 1.41 | 2.92 | 2.53 | 3.4 | 14.4 | 4.5 | 2.56 | 2.05 | 1.63 | 1.58 | 1.24
24 | Cc1cc(N(CCC#N)CCC#N)ccc1N=Nc1ccc(C(=O)O)cc1 | > 100 | > 100 |  | > 100 | > 100 | > 100 | > 100 |  | > 100 |  |  |  |  |  |  |  |  | 
25 | CC1c2c(Cl)nc3ccccc3c2Oc2c1c(Cl)nc1ccccc21 |  | > 100 | > 100 | > 100 | > 100 |  |  |  | > 100 |  |  |  |  |  |  |  |  | 
26 | CCn1c2ccccc2c2cc(NC(=O)Nc3ccc([N+](=O)[O-])cc3C)ccc21 | 64.1 | 3.85 |  | 84.9 | 15.4 | 37.3 | 85 | 1.36 | 6.27 | 6.21 | 2.62 | 23.5 | 4.61 | 3.33 | 2.29 | 5.48 | 1.29 | 
27 | CCOC(=O)C(=[N+]=[N-])[Si](C)(C)C |  |  |  | > 100 | > 100 | > 100 | > 100 |  | > 100 |  |  |  |  |  |  |  |  | 
28 | O=C(c1ccccc1)c1cc2ccccc2o1 | > 100 |  |  | > 100 | > 100 | > 100 | > 100 | 88 | > 100 | > 100 | > 100 | > 100 | > 100 | > 100 | > 100 | > 100 |  | 
29 | COc1ccc(CC2NCCc3c2[nH]c2ccccc32)cc1 (centres undefined) | > 100 | > 100 | > 100 | > 100 | > 100 | > 100 | > 100 |  |  |  |  |  |  |  |  |  |  | 
